Earlier results as cited in patent US20230149402A1, “SOLID PHARMACEUTICAL PREPARATION, PREPARATION METHOD THEREFOR AND USE THEREOF” (SHANGHAI HAIYAN PHARMACEUTICAL TECHNOLOGY CO., LTD, priority 2020, published 2023).

What was measured:
hOX1R = biological target: T1, hOX1R (Homo sapiens, UniProt O43613); settings: FLIPR, read-out: IC50, inhibitory effect on OX1 GPCR receptor
T1 sequence (O43613 1-425): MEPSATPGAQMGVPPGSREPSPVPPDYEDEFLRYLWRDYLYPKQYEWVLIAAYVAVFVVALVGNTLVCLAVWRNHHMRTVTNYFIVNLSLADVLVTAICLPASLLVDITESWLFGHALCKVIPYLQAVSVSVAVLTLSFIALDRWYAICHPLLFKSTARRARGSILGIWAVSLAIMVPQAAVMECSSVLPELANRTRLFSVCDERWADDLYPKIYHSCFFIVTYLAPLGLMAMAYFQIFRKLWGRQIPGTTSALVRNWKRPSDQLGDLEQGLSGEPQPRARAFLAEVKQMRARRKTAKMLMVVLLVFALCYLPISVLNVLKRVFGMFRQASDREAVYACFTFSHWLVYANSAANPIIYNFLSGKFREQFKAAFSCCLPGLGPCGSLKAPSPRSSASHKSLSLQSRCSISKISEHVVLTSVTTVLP

hOX2R = biological target: T2, hOX2R (Homo sapiens, UniProt O43614); settings: FLIPR, read-out: IC50, inhibitory effect on OX2 GPCR receptor
T2 sequence (O43614 1-444): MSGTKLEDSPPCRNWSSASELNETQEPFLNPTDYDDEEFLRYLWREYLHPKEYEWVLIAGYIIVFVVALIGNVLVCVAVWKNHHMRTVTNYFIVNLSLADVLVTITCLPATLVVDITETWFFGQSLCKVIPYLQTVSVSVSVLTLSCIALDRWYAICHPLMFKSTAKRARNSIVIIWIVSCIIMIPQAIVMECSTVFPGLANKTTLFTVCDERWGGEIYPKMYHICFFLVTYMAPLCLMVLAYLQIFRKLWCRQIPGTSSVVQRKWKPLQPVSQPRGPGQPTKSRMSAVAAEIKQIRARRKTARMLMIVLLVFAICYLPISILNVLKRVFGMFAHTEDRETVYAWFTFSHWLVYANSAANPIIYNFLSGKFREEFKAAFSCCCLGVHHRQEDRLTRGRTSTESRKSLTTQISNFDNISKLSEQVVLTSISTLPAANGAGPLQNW

IC50 (hOX1R): 0.02 µM
IC50 (hOX2R): 0.036 µM
Structure (SMILES): Cc1ccc(-c2ncccn2)c(C(=O)N2[C@H]3CC[C@@H](COc4ccc(F)cn4)[C@@H]2CC3)c1 [compound of formula (II), ((1S,2R,5S)-2-(((5-fluoropyridin-2-yl)oxy)methyl)-8-azabicyclo[3.2.1]octan-8-yl)(5-methyl-2-(pyrimidin-2-yl)phenyl)methanone]
